Assay [1] addresses Beta Secretase enzyme (BACE1) (Homo sapiens, UniProt P56817). Kind of assay: In vitro enzymatic BACE FRET assay. The class given is biochemical. The note with it: read-out: BACE1 FRET assay IC50. Put shortly: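 Readout: dequenched fluorescence (ex 488 nm/[…]) after neutralizing with Tris buffer. Reactions, begun by adding 50 nM quenched peptide substrate spanning the BACE cleavage site, were incubated one hour at pH 4.2 in 0.05 M acetate with 100 uM genapol and 10% final DMSO.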

In assay [2] the test system is Aβ40 in conditioned medium of cells stably expressing Amyloid Precursor Protein (APP). Kind of assay: In vitro BACE cell-based assay (HEK cell assay), Aβ40 sandwich ELISA. Conditions: Homo sapiens, HEK293. Put shortly:
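Aβ40 in conditioned medium was quantified by time-resolved fluorescence sandwich ELISA (pAb40 capture 3 h at 4 °C, biotin-6E10 detection 2 h at 4 °C) after 24 h compound exposure of APP-expressing cells. Doses spanned 10 points from 100 μM or 10 μM top, 0.1% DMSO; IC50 was derived from percent of control.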
Background: An ELISA detects its analyte on a solid surface through an enzyme-linked reagent.

For assay [3], the target named is T1, Cathepsin D (Cat D) (Homo sapiens, UniProt P07339).
T1 construct: Recombinant Cat D was expressed in CHO cells; made in house; host or cells: CHO cells
The experiment in a line: In vitro enzymatic Cathepsin D (Cat D) FRET assay. The class given is biochemical. The note with it: read-out: CatD IC50. A digest of the protocol: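 FRET read-out: a fluorophore/quencher-labelled peptide substrate is cleaved by 9 nM Cat D (recombinant, CHO-expressed) following a one-hour preincubation with inhibitor dilutions in DMSO. Tris buffer added to neutralize pH ends the reaction before fluorescence measurement.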

pIC50: −log10 of the molar value. Like-named read-outs stand apart in the source and are kept apart here.

T1 sequence (P07339 65-412, species assumed): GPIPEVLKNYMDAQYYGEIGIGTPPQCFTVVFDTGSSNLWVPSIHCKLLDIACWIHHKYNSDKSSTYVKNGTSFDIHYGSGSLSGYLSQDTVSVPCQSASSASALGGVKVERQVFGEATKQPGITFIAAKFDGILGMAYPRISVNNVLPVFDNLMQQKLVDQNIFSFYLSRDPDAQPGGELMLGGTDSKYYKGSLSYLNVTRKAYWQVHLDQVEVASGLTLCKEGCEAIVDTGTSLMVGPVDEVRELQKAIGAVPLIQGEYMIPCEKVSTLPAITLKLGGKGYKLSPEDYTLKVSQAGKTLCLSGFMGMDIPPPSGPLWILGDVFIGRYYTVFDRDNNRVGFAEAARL
Sequence of Beta Secretase enzyme (BACE1) (P56817 46-501): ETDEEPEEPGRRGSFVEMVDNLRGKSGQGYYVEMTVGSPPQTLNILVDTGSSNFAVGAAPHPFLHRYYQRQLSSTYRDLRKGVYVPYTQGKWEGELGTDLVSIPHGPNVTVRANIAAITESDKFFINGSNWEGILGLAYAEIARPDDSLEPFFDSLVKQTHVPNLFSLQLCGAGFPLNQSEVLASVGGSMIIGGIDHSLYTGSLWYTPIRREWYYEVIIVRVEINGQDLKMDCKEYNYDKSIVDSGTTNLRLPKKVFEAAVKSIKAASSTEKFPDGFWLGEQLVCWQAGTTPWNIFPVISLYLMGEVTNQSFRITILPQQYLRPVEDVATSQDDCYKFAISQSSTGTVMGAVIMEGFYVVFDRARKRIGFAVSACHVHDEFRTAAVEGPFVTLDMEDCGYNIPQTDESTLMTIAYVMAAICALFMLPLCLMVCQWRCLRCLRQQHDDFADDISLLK

One may read the pIC50 as −log10 of the IC50, conventionally taken in molar units. As to `COc1cc(Cl)cnc1C(=O)Nc1ccc(F)c([C@@]2(C)N=C(N)C3(CCC3)S(=O)(=O)[C@@H]2F)c1` [Example 139, N-(3-((6S,7R)-9-amino-6-fluoro-7-methyl-5,5-dioxido-5-thia-8-azaspiro[3.5]non-8-en-7-yl)-4-fluorophenyl)-5-chloro-3-methoxypicolinamide], the negative logarithm of the IC50 (pIC50) is 8.42 in assay [1], 7.93 in assay [2] and 3.39 in assay [3].
In the case of `CC(C)(C)Cc1ccc(Oc2ccc(F)c([C@]3(C)CS(=O)(=O)C(C)(C)C(N)=N3)c2)nc1` [Example 257, (5R)-5-(5-((5-(2,2-dimethylpropyl)-2-pyridinyl)oxy)-2-fluorophenyl)-2,2,5-trimethyl-5,6-dihydro-2H-1,4-thiazin-3-amine 1,1-dioxide], the negative logarithm of the IC50 (pIC50) in assay [1] (average IC50, enzyme assay) is 4.72; in assay [2] (average IC50, cell assay), 5.11; in assay [3], 3.73.
`Cc1c(C(F)(F)F)ccnc1Oc1ccc(F)c([C@]2(C)CS(=O)(=O)C(C)(C)C(N)=N2)c1` [Example 311, (5R)-5-(2-fluoro-5-((3-methyl-4-(trifluoromethyl)-2-pyridinyl)oxy)phenyl)-2,2,5-trimethyl-5,6-dihydro-2H-1,4-thiazin-3-amine 1,1-dioxide]: the negative-log IC50 (pIC50) in assay [1] (average IC50, enzyme assay) was 5.59; in assay [2] (average IC50, HEK cell assay), 5.62; in assay [3], 3.40.
`COc1cnc(C(=O)Nc2ccc(F)c(C3(C(F)F)CS(=O)(=O)C(C)(C)C(N)=N3)c2)cn1` (stereo not drawn) [Example 32, N-(3-(-5-amino-3-(difluoromethyl)-6,6-dimethyl-1,1-dioxido-3,6-dihydro-2H-1,4-thiazin-3-yl)-4-fluorophenyl)-5-methoxy-2-pyrazinecarboxamide]: the pIC50 in assay [1] is 7.27; in assay [2] (Aβ40, 24 h incubation) it was 5.85; in assay [3], under 3.40.
As for `CC1(C)C(N)=N[C@](C)(c2cc(N)ccc2F)[C@@H](F)S1(=O)=O` [Example 164, (2S,3R)-5-amino-3-(5-amino-2-fluorophenyl)-2-fluoro-3,6,6-trimethyl-3,6-dihydro-2H-1,4-thiazine 1,1-dioxide], the negative-log IC50 (pIC50) was 5.43 in assay [1] (average IC50, enzyme assay); 5.52 in assay [2] (average IC50, cell assay); 3.72 in assay [3].
As for `COc1cnc2c(Nc3ccc(F)c([C@]4(C)CS(=O)(=O)C(C)(C)C(N)=N4)c3)cccc2n1` [Example 75, (R)-5-Amino-3-(2-fluoro-5-((2-methoxyquinoxalin-5-yl)amino)phenyl)-3,6,6-trimethyl-3,6-dihydro-2H-1,4-thiazine 1,1-dioxide], the pIC50 in assay [1] was 7.94; in assay [2] (Aβ40, 24 h incubation) it was 6.67; in assay [3] it was 4.32.
Take `Cc1nc2c(Nc3ccc(F)c([C@]4(C)CS(=O)(=O)C(C)(C)C(N)=N4)c3)nccc2s1` [Example 54, N-(3-((3R)-5-amino-3,6,6-trimethyl-1,1-dioxido-3,6-dihydro-2H-1,4-thiazin-3-yl)-4-fluorophenyl)-2-methyl[1,3]thiazolo[4,5-c]pyridin-4-amine]: the pIC50 is 7.76 in assay [1]; 6.86 in assay [2] (Aβ40, 24 h incubation); under 3.40 in assay [3].
The corresponding values for `CC1(C)C(N)=N[C@](C)(c2cc(NC(=O)c3ccc(C(F)F)cn3)ccc2F)CS1(=O)=O` [Example 20, N-(3-((3R)-5-amino-3,6,6-trimethyl-1,1-dioxido-3,6-dihydro-2H-1,4-thiazin-3-yl)-4-fluorophenyl)-5-(difluoromethyl)-2-pyridinecarboxamide] are 8.57, 8.41 and 3.71.
As for `COc1ccc(C(=O)Nc2ccc(F)c([C@]3(C)CS(=O)(=O)[C@@](C)(F)C(N)=N3)c2)nc1` [Example 318, N-(3-((3R,6R)-5-amino-6-fluoro-3,6-dimethyl-1,1-dioxido-3,6-dihydro-2H-1,4-thiazin-3-yl)-4-fluorophenyl)-5-methoxy-2-pyridinecarboxamide], the pIC50 in assay [1] (average IC50, enzyme assay) was 8.74; in assay [2] (average IC50, HEK cell assay), 7.16; in assay [3], under 3.40.
Take `CC1(C)C(N)=N[C@](C)(c2cc(Nc3nncc4cc(Br)cnc34)ccc2F)CS1(=O)=O` [Example 451, N-(3-((3R)-5-amino-3,6,6-trimethyl-1,1-dioxido-3,6-dihydro-2H-1,4-thiazin-3-yl)-4-fluorophenyl)-3-bromopyrido[2,3-d]pyridazin-8-amine]: the pIC50 in assay [1] (average IC50, enzyme assay) is 9.17; in assay [2] (average IC50, cell assay), 9.22; in assay [3], 3.98.
The corresponding values for `Cc1cccc(Oc2ccc(F)c([C@]3(C)CS(=O)(=O)C(C)(C)C(N)=N3)c2)n1` [Example 266, (5R)-5-(2-fluoro-5-((6-methyl-2-pyridinyl)oxy)phenyl)-2,2,5-trimethyl-5,6-dihydro-2H-1,4-thiazin-3-amine 1,1-dioxide] are 6.38, 6.37 and 3.39.
Regarding `CC1(C)C(N)=N[C@](C)(c2cc(Nc3ncnc4cc(Cl)cnc34)ccc2F)CS1(=O)=O` [Example 52, N-(3-((3R)-5-amino-3,6,6-trimethyl-1,1-dioxido-3,6-dihydro-2H-1,4-thiazin-3-yl)-4-fluorophenyl)-7-chloropyrido[3,2-d]pyrimidin-4-amine], the negative-log IC50 (pIC50) was 8.70 in assay [1]; 8.64 in assay [2] (Aβ40, 24 h incubation); 4.44 in assay [3].
For the compound `CC1(C)C(N)=N[C@](C)(c2cc(Nc3nccc4nc(OCCF)cnc34)ccc2F)CS1(=O)=O` [Example 441, N-(3-((3R)-5-amino-3,6,6-trimethyl-1,1-dioxido-3,6-dihydro-2H-1,4-thiazin-3-yl)-4-fluorophenyl)-2-(2-fluoroethoxy)pyrido[3,4-b]pyrazin-5-amine], the pIC50 in assay [1] (average IC50, enzyme assay) is 8.27; in assay [2] (average IC50, cell assay) it was 7.86; in assay [3] it was 3.39.
For the compound `CCc1cc(Cl)cnc1C(=O)Nc1ccc(F)c([C@]2(C)CS(=O)(=O)C(C)(C)C(N)=N2)c1` [Example 196, (R)—N-(3-(5-amino-3,6,6-trimethyl-1,1-dioxido-3,6-dihydro-2H-1,4-thiazin-3-yl)-4-fluorophenyl)-5-chloro-3-ethylpicolinamide], the pIC50 is 8.74 in assay [1] (average IC50, enzyme assay); 8.27 in assay [2] (average IC50, HEK cell assay); 3.70 in assay [3].
In the case of `COc1cnc2c(Nc3ccc(F)c([C@@]4(C)N=C(N)C(C)(C)S(=O)(=O)[C@@H]4F)c3)nccc2c1` [Example 44, (2S,3R)-5-Amino-2-fluoro-3-(2-fluoro-5-((3-methoxy-1,7-naphthyridin-8-yl)amino)phenyl)-3,6,6-trimethyl-3,6-dihydro-2H-1,4-thiazine 1,1-dioxide], the pIC50 in assay [1] was 8.00; in assay [2] (Aβ40, 24 h incubation), 7.22; in assay [3], 3.45.
`CC1(C)C(N)=N[C@](C)(c2cc(Nc3nccc4cc(OCC(F)(F)F)cnc34)ccc2F)CS1(=O)=O` [Example 419, N-(3-((3R)-5-amino-3,6,6-trimethyl-1,1-dioxido-3,6-dihydro-2H-1,4-thiazin-3-yl)-4-fluorophenyl)-3-(2,2,2-trifluoroethoxy)-1,7-naphthyridin-8-amine]: the negative logarithm of the IC50 (pIC50) in assay [1] (average IC50, enzyme assay) was 8.35; in assay [2] (average IC50, cell assay), 7.59; in assay [3], 3.20.
With `Cc1cc(OC(F)F)cnc1C(=O)Nc1cnc(F)c([C@]2(C)CS(=O)(=O)C(C)(C)C(N)=N2)c1` [Example 400, N-(5-((3R)-5-amino-3,6,6-trimethyl-1,1-dioxido-3,6-dihydro-2H-1,4-thiazin-3-yl)-6-fluoro-3-pyridinyl)-5-(difluoromethoxy)-3-methyl-2-pyridinecarboxamide], the results for the pIC50 in assay [1], in assay [2] and in assay [3] were 8.85, 8.05 and 3.81, respectively.

The record behind these values is patent publication US20140107109A1, “AMINO-DIHYDROTHIAZINE AND AMINO-DIOXIDO DIHYDROTHIAZINE COMPOUNDS AS BETA-SECRETASE ANTAGONISTS AND METHODS OF USE” (Amgen Inc., priority 2012, published 2014).
